Test results as given in patent publication US11992494B2, “Cyclopentathiophene carboxamide derivatives as platelet activating factor receptor antagonists” (Boehringer Ingelheim International GmbH, priority 2021, dated 2024).

Biological target: PAFR (Homo sapiens, UniProt P25105)
Assay: cellular HTRF IP1 assay: inhibition of PAFR activation by PAF C-16 ligand (endpoint assay)
Assay type: cell-based
Set-up: expressed in transfected cells; host or cells: HEK293
Experimental: The ability of compounds of formula (I) to inhibit the activation of the PAF receptor (PAFR) by the PAF C-16 ligand (PAF) is determined using the following cellular HTRF IP1 assay (IP1 Gq assay kit from Cisbio, Cat. no.: 62IP1APEJ) in assay buffer (1×HBSS, 20 mM Hepes, pH 7.4, 50 mM LiCl and containing 0.1% (w/v) BSA):
Evaluation of the Inhibition of PAFR Activation Using an Endpoint Assay
HEK293 cells overexpressing human PAFR (produced in-house) are seeded into a Poly-D-Lysine coated 384 well white cell culture microtiter assay plate with lid (15.000 cells per well). Subsequently, the plates are incubated over night at 37° C./5% CO2. On the next day, cells are being washed and subsequently, various concentrations of the test compounds (compounds in 100% DMSO; final concentration of DMSO in wells is 1%) are added to the assay plate via Echo 555 acoustic liquid handler. Plates are then incubated with lid for 90 minutes at 37° C./5% CO2. Thereafter, PAF ligand (Cayman Chemical Company, Item no.: 60900) is added at a final concentration of 11 nM. Plates are then incubated with lid for 60 minutes at 37° C./5% CO2. Then, 5 μl per well of Anti-IP1-Antibody-Cryptate solution and 5 μl per well of IP1-d2 solution are added to all wells of the plate and the plate is incubated for another 60 minutes light protected at room temperature. The emissions at 620 nm and 665 nm (Excitation wavelength: 320 nm) are measured using an Envision Reader (PerkinElmer).

[1] = HEK293 cells overexpressing human PAFR, PAF ligand 11 nM, Table 2
[2] = dedicated head-to-head comparison assay run: cyclopropylene vs di-methyl / cyclobutylene analogues

PAFR, sequence (P25105 whole entry): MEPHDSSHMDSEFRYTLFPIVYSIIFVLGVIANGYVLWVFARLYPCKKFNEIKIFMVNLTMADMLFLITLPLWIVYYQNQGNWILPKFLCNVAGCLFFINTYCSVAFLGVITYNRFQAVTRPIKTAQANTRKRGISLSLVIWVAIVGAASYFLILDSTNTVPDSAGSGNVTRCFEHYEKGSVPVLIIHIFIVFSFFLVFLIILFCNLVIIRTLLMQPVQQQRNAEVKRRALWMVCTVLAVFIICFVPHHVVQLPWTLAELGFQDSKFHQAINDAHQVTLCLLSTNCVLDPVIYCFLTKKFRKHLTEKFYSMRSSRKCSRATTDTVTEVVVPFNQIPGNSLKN

Cc1nnc2n1-c1sc3c(c1C(c1ccccc1Cl)=NC21CC1)C[C@H](C(=O)NC1(CO)CCCCC1)C3 [Example 71]
IC50 [1]: 3.9 nM

Cc1nnc2n1-c1sc3c(c1C(c1ccccc1Cl)=NC21CC1)C[C@H](C(=O)N[C@H]1CC[C@H](C(C)(C)O)CC1)C3 [Example 98]
IC50 [1]: 9.1 nM

Cc1nnc2n1-c1sc3c(c1C(c1ccccc1Cl)=NC21CC1)C[C@H](C(=O)NC1CC1)C3 [Example 74]
IC50 [1]: 5.5 nM

Cc1nnc2n1-c1sc3c(c1C(c1ccccc1Cl)=NC21CC1)C[C@H](C(=O)NC1Cc2ccccc2C1)C3 [Example 31]
IC50 [1]: 0.9 nM

CCN(C(=O)[C@@H]1Cc2sc3c(c2C1)C(c1ccccc1Cl)=NC1(CC1)c1nnc(C)n1-3)C1CCCCC1 [Example 91]
IC50 [1]: 1.5 nM

Cc1nnc2n1-c1sc3c(c1C(c1ccccc1Cl)=NC21CC1)C[C@H](C(=O)N[C@H]1CCc2ccccc2C1)C3 [Example 58]
IC50 [1]: 0.4 nM

Cc1nnc2n1-c1sc3c(c1C(c1ccccc1Cl)=NC21CC1)C[C@H](C(=O)N[C@H]1CCC(F)(F)C1)C3 [Example 24]
IC50 [1]: 2 nM

Cc1nnc2n1-c1sc3c(c1C(c1cc(Cl)ccc1Cl)=NC21CC1)C[C@H](C(=O)N1CCOCC1)C3 [Example 3, (13′S)-9′-(2,5-dichlorophenyl)-3′-methyl-13′-(morpholine-4-carbonyl)-16′-thia-2′,4′,5′,8′-tetraazaspiro[cyclopropane-1,7′-tetracyclo[8.6.0.0^2,6.0^11,15]hexadecane]-1′(10′),3′,5′,8′,11′(15′)-pentaene]
IC50 [1]: 17 nM

Cc1nnc2n1-c1sc3c(c1C(c1ccccc1Cl)=NC21CC1)C[C@H](C(=O)N1CCOCC12CC2)C3 [Example 127, (13′S)-9′-(2-chlorophenyl)-3′-methyl-13′-{7-oxa-4-azaspiro[2.5]octane-4-carbonyl}-16′-thia-2′,4′,5′,8′-tetraazaspiro[cyclopropane-1,7′-tetracyclo[8.6.0.0^2,6.0^11,15]hexadecane]-1′(10′),3′,5′,8′,11′(15′)-pentaene]
IC50 [1]: 5.8 nM

CCc1nnc2n1-c1sc3c(c1C(c1ccccc1Cl)=NC21CC1)C[C@H](C(=O)N1CCOCC1)C3 [Example 119, (13′S)-9′-(2-chlorophenyl)-3′-ethyl-13′-(morpholine-4-carbonyl)-16′-thia-2′,4′,5′,8′-tetraazaspiro[cyclopropane-1,7′-tetracyclo[8.6.0.0^2,6.0^11,15]hexadecane]-1′(10′),3′,5′,8′,11′(15′)-pentaene]
IC50 [1]: 15 nM

Cc1nnc2n1-c1sc3c(c1C(c1ccccc1Cl)=NC21CC1)C[C@H](C(=O)N1CCC(F)(F)C1)C3 [Example 105, (13′S)-9′-(2-chlorophenyl)-13′-(3,3-difluoro-pyrrolidine-1-carbonyl)-3′-methyl-16′-thia-2′,4′,5′,8′-tetraazaspiro[cyclopropane-1,7′-tetracyclo[8.6.0.0^2,6.0^11,15]hexadecane]-1′(10′),3′,5′,8′,11′(15′)-pentaene]
IC50 [1]: 3.6 nM

COc1ccccc1C1=NC2(CC2)c2nnc(C)n2-c2sc3c(c21)C[C@H](C(=O)N1CCOCC1)C3 [Example 130, (13′S)-9′-(2-methoxyphenyl)-3′-methyl-13′-(morpholine-4-carbonyl)-16′-thia-2′,4′,5′,8′-tetraazaspiro[cyclopropane-1,7′-tetracyclo[8.6.0.0^2,6.0^11,15]hexadecane]-1′(10′),3′,5′,8′,11′(15′)-pentaene]
IC50 [1]: 84 nM

Cc1nnc2n1-c1sc3c(c1C(c1ccccc1Cl)=NC21CC1)C[C@H](C(=O)NC1(C(C)(C)O)CC1)C3 [Example 122, (13′S)-9′-(2-chlorophenyl)-N-[1-(2-hydroxy-propan-2-yl)cyclopropyl]-3′-methyl-16′-thia-2′,4′,5′,8′-tetraazaspiro[cyclopropane-1,7′-tetracyclo[8.6.0.0^2,6.0^11,15]hexadecane]-1′(10′),3′,5′,8′,11′(15′)-pentaene-13′-carboxamide]
IC50 [1]: 37 nM

Cc1nnc2n1-c1sc3c(c1C(c1ccccc1Cl)=NC21CC1)C[C@H](C(=O)N(C)C1CCCCCC1)C3 [Example 75]
IC50 [1]: 1.5 nM

Cc1nnc2n1-c1sc3c(c1C(c1ccccc1Cl)=NC21CCC1)C[C@H](C(=O)N1CCOCC1)C3 [comparative example 2, reference compound]
IC50 [2]: 59 nM

Cc1nnc2n1-c1sc3c(c1C(c1ccccc1Cl)=NC21CC1)C[C@H](C(=O)N[C@H]1CCOC1)C3 [Example 78]
IC50 [1]: 15 nM

Cc1nnc2n1-c1sc3c(c1C(c1ccccc1Cl)=NC21CC1)C[C@H](C(=O)NC1CCOCC1)C3 [Example 51]
IC50 [1]: 12 nM
IC50 [2]: 9.7 nM

Cc1nnc2n1-c1sc3c(c1C(c1ccccc1Cl)=NC21CC1)C[C@H](C(=O)N1CCOC(C)(C)C1)C3 [Example 10]
IC50 [1]: 5.2 nM

Cc1nnc2n1-c1sc3c(c1C(c1ccccc1Cl)=NC21CC1)C[C@H](C(=O)N(C)[C@@H]1CCOC1)C3 [Example 48]
IC50 [1]: 6.7 nM

Cc1nnc2n1-c1sc3c(c1C(c1ccccc1Cl)=NC21CC1)C[C@H](C(=O)N[C@H]1CC[C@H](C(F)F)CC1)C3 [Example 76]
IC50 [1]: 1.9 nM

Cc1nnc2n1-c1sc3c(c1C(c1ccccc1Cl)=N[C@@H]2C)C[C@H](C(=O)N1CCOCC1)C3 [comparative example 1b, reference compound]
IC50 (S-bepafant and its methylated derivatives in the above-mentioned assay): > 1000 nM

Cc1nnc2n1-c1sc3c(c1C(c1ccccc1Cl)=NC21CC1)C[C@H](C(=O)NC1(C)CCC1)C3 [Example 38]
IC50 [1]: 1.6 nM

Cc1nnc2n1-c1sc3c(c1C(c1ccccc1Cl)=NC21CC1)C[C@H](C(=O)N(C)[C@H]1CCN(S(C)(=O)=O)C1)C3 [Example 111, (13′S)-9′-(2-chlorophenyl)-N-[(3S)-1-methanesulfonylpyrrolidin-3-yl]-N,3′-dimethyl-16′-thia-2′,4′,5′,8′-tetraazaspiro[cyclopropane-1,7′-tetracyclo[8.6.0.0^2,^6.0^11,15]hexadecane]-1′(10′),3′,5′,8′,11′(15′)-pentaene-13′-carboxamide]
IC50 [1]: 24 nM

Cc1nnc2n1-c1sc3c(c1C(c1ccccc1Cl)=NC21CC1)C[C@H](C(=O)NC1(c2ccc(Cl)cn2)CC1)C3 [Example 35]
IC50 [1]: 1.6 nM

Cc1nnc2n1-c1sc3c(c1C(c1ccccc1Cl)=NC21CC1)C[C@H](C(=O)NC1(c2ccccn2)CC1)C3 [Example 87]
IC50 [1]: 4.9 nM
IC50 [2]: 5.6 nM

Cc1nnc2n1-c1sc3c(c1C(c1ccccc1Cl)=NC21CC1)C[C@H](C(=O)NC1CCCS(=O)(=O)C1)C3 (stereo partly drawn) [Example 121, (13′S)-9′-(2-chlorophenyl)-N-(1,1-dioxo-1lambda6-thian-3-yl)-3′-methyl-16′-thia-2′,4′,5′,8′-tetraazaspiro[cyclopropane-1,7′-tetra-cyclo[8.6.0.0^2,6.0^11,15]hexadecane]-1′(10′),3′,5′,8′,11′(15′)-pentaene-13′-carboxamide]
IC50 [1]: 30 nM

Cc1nnc2n1-c1sc3c(c1C(c1ccccc1Cl)=NC21CC1)C[C@H](C(=O)N[C@@H]1CCc2c1ccnc2N)C3 [Example 103]
IC50 [1]: 14 nM

Cc1nnc2n1-c1sc3c(c1C(c1ccccc1Cl)=NC21CC1)C[C@H](C(=O)N[C@H]1CC[C@@H](F)CC1)C3 [Example 36]
IC50 [1]: 3.5 nM

COc1cc(C2(NC(=O)[C@@H]3Cc4sc5c(c4C3)C(c3ccccc3Cl)=NC3(CC3)c3nnc(C)n3-5)CC2)ccn1 [Example 85]
IC50 [1]: 3.9 nM

CCC12CC(NC(=O)[C@@H]3Cc4sc5c(c4C3)C(c3ccccc3Cl)=NC3(CC3)c3nnc(C)n3-5)(C1)C2 [Example 109]
IC50 [1]: 1.1 nM
